Experimental data reported in US11458138B2 (Novartis AG, priority 2017, dated 2022).

Assays:
[1] = target: Human LATS1 kinase domain protein (Homo sapiens (Human), UniProt O95835); assay: LATS1 Biochemical Caliper Assay (Compound Examples 291-335); conditions: Caliper EZ Reader
Experimental: The LATS1 biochemical Caliper assay was performed as following.
Human LATS1 kinase domain protein was purchased from Carnabio (catalogue number 01-123; lot 15CBS-0098D). Human LATS1, catalytic domain [589-1130(end) amino acids of accession number NP_004681.1] was co-expressed as N-terminal GST-fusion protein (90 kDa) with human His-tagged MOBKL1A [1-216(end) amino acids of accession number NP_775739.1] using baculovirus expression system. GST-LATS1 was purified by using glutathione sepharose chromatography. The substrate (Fluo-SGKtide; Peptide for LATS1; lot BS-41067) has the following sequence: 5-Fluo-Nva-[…]-amide (SEQ ID NO: 27) x TFA and was purchased from Biosyntan.
The reaction is performed in reaction buffer containing 50 mM Hepes pH 7,5; 0.02% Tween20; 0.02% BSA; 1 mM DTT; 10 uM Na3VO4 and 10 mM beta-Glycerolphosphat and fresh added 1 mM MgCl2 and qsp H2O.
The substrate solution (2× conc.) in Reaction Buffer contains 300 μM ATP and 4 μM Fluo-SGKtide.
The kinase solution (2× conc.) in Reaction Buffer contains 20 nM LATS1 kinase. 4.5 μL of 2× conc. Kinase solution, 50 nL of 1.8 mM compounds and 4.5 μL of substrate solution were added into 384-well plates black small volume from Greiner and incubated at 32° C. for 1 hour. 15 μL of stop buffer containing 100 mM Hepes pH 7,5; 5% DMSO; 0.1% Coating reagent; 10 mM EDTA and 0.02% Brij35 and qsp H2O to each well to terminate the reaction.
Substrates and products were electrophoretically separated using the microfluidic-based Caliper EZ Reader System (Caliper Life Sciences) using a 12 sipper chip (cat 760404). The separation takes place in Coating Buffer (idem Stop buffer) and containing 0.1% Coating reagent CR3 and 0.5% coating reagent CR8 (Perkin Elmer).
Plates were read using a LED with an excitation at 488 nm and a detection at 520 nm to 5 quantify the fluorescence intensity.

[2] = tested on: Phospho-YAP (Ser127) in JHH-5 cells; assay: pYAP HTRF Assay (JHH-5 cells); type: cell-based; conditions: 2 hours
Summary of the method: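 Phospho-YAP read by HTRF (665 nm/620 nm ×10000) in lysates after overnight 18 h antibody incubation at room temperature. Compound treatment lasted 2 h at 37 °C, on JHH-5 cells plated 24 h earlier at 24000 per well in William's E medium with 10% FBS.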

[3] = target: LATS1 (Homo sapiens (Human), UniProt O95835); assay: LATS1 biochemical assay (Table 1A, Compound Examples 1-290; method in the earlier part)
[4] = target: Human LATS2 kinase domain protein (Homo sapiens (Human), UniProt Q9NRM7); assay: LATS2 Biochemical Caliper Assay (Compound Examples 1-290); conditions: 400 micromolar ATP
Experimental: Human LATS2 kinase domain protein was purchased from Carnabio (catalogue number 01-124), which harbors the catalytic domain of amino acids 553-1088, and was co-purified with human His-tagged MOBKL1A (NP_775-739). 5 microlitre of enzyme buffer, 100 nL of compounds and 5 microlitre of localising aid buffer were added into 384-well plates. […] The plates were incubated at 25° C. for 3 hours. 40 microlitre of stop buffer with 25 mM EDTA (NanoSyn) was added to each well to terminate the reaction. Localising aids and products were separated electrophoretically using the microfluidic-based Caliper Labchip 3000 Drug Discovery System (Caliper Life Sciences). Plates were read using blue laser excitation and green fluorescence detection and quantified by fluorescence intensity.

[5] = tested on: Phospho-YAP (SER127) in HaCaT cells; assay: pYAP HTRF Assay (HaCaT Cells); type: cell-based, human; conditions: Homo sapiens, 2 hours
Summary of the method: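 Phospho-YAP (Ser127) was measured by HTRF (665 nm/620 nm ratio) in HaCaT cells. Cells were grown 48 hours at 37° C at 5500 cells/well, exposed to compound for 2 hours, and incubated with detection reagents for 20 hrs at room temperature.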

[6] = tested on: YAP nuclear translocation in HaCaT cells; assay: YAP Translocation Assay (HaCaT Cells); type: cell-based, human; conditions: Homo sapiens, 24 hours
Summary of the method: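 HaCaT cells (20,000/well) in DMEM + 10% FBS were plated overnight at 37° C, then exposed to compound for 24 h at 37° C. Cells were fixed with PFA, permeabilized with 0.1% Triton/1.5% BSA and imaged by high-content imaging.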

Human LATS2 kinase domain protein, sequence (Q9NRM7 553-1088): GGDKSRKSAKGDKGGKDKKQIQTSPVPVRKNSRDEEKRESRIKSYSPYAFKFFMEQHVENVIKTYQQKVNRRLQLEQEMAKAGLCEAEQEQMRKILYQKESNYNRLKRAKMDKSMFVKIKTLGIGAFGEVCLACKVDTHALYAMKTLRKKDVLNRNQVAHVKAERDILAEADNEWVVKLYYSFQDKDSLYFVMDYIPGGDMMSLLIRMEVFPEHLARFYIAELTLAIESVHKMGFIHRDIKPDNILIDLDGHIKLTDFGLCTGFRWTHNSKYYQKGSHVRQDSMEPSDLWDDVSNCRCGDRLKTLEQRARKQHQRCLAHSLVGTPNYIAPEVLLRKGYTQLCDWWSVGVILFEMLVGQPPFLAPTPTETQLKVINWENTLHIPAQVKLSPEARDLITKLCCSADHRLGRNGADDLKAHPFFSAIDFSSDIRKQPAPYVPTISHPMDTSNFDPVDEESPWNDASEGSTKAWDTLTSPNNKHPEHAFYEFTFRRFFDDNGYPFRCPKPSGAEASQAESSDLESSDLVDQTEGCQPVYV
Human LATS2 kinase domain protein, sequence (Q7L9L4 whole entry partner, the tested form may be a part): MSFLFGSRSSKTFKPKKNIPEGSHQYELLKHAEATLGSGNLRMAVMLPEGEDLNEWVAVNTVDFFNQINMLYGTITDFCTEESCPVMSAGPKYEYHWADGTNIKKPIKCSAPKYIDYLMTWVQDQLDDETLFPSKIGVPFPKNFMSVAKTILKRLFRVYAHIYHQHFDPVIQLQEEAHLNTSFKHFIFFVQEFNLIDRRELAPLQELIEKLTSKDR
LATS1, sequence (O95835 whole entry, looked up, the tested form may be a part): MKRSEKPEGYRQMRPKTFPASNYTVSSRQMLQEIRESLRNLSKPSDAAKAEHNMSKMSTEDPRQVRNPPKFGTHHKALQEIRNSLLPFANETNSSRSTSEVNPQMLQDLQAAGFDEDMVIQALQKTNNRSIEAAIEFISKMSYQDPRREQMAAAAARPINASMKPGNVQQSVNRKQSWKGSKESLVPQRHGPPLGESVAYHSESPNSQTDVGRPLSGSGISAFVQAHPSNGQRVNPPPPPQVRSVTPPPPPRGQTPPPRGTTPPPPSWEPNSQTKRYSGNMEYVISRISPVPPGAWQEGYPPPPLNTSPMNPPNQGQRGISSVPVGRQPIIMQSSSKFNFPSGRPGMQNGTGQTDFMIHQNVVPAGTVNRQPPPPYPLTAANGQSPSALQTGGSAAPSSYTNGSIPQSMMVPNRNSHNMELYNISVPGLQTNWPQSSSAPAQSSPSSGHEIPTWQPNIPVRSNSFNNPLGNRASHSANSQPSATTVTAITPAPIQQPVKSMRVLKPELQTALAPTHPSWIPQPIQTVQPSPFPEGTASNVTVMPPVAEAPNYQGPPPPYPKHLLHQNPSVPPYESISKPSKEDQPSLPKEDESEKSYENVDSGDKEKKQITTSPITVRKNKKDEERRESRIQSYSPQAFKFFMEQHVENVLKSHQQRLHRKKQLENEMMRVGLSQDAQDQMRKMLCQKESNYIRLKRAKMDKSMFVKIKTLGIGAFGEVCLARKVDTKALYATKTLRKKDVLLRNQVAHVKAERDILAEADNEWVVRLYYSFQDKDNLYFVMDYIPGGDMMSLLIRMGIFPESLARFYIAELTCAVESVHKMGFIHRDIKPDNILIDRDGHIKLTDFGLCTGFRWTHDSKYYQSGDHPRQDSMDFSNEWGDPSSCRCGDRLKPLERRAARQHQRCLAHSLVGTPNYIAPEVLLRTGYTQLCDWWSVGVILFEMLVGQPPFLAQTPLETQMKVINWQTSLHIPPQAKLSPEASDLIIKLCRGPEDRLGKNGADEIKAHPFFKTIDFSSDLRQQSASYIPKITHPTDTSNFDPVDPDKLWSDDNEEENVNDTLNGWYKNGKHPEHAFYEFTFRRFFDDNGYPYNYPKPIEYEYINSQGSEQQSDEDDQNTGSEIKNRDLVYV
LATS1, sequence (Q7L9L4 whole entry partner, looked up, the tested form may be a part): as the sequence (Q7L9L4 whole entry partner, the tested form may be a part) above
Human LATS1 kinase domain protein, sequence (O95835 whole entry, looked up, the tested form may be a part): as the sequence (O95835 whole entry, looked up, the tested form may be a part) above
Human LATS1 kinase domain protein, sequence (Q7L9L4 whole entry partner, looked up, the tested form may be a part): as the sequence (Q7L9L4 whole entry partner, the tested form may be a part) above

Structure (SMILES): NCCNc1nc(-c2ccncc2)nc2cnccc12 [Example 313, N-(2-(pyridin-4-yl)pyrido[3,4-d]pyrimidin-4-yl)ethane-1,2-diamine]
- IC50 [1]: 3.8 nM
- IC50 [2]: 7.8 µM

Structure (SMILES): Cc1n[nH]cc1-c1nc(NC(C)(C)CCN(C)C)c2ccncc2n1 [Example 309, N^1,N^1,3-trimethyl-N^3-(2-(3-methyl-1H-pyrazol-4-yl)pyrido[3,4-d]pyrimidin-4-yl)butane-1,3-diamine]
- IC50 [1]: 0.8 nM
- IC50 [2]: 2 µM

Structure (SMILES): CN(CCC(C)(C)N)c1nc(-c2ccncc2)nc2cnccc12 [Example 315, N^1,3-dimethyl-N^1-(2-(pyridin-4-yl)pyrido[3,4-d]pyrimidin-4-yl)butane-1,3-diamine]
- IC50 [1]: 5 nM
- IC50 [2]: 5.7 µM

Structure (SMILES): CC(CN)CNc1cc(-c2ccncc2)nc2cnccc12 (centres unmarked) [Example 304, 2-methyl-N^1-(2-(pyridin-4-yl)-1,7-naphthyridin-4-yl)propane-1,3-diamine]
- IC50 [1]: 9.6 nM
- IC50 [2]: > 10 µM

Structure (SMILES): CC1(Nc2cc(-c3ccncc3)nc3cnccc23)CC1 [Example 297, N-(1-methylcycloropyl)-2-(pyridin-4-yl)-1,7-naphthyridin-4-amine]
- IC50 [1]: 7.5 nM
- IC50 [2]: > 10 µM

Structure (SMILES): CC(C)(N)CNc1nc(-c2ccncc2)nc2cnccc12 [Example 312, 2-methyl-N^1-(2-(pyridin-4-yl)pyrido[3,4-d]pyrimidin-4-yl)propane-1,2-diamine]
- IC50 [1]: 2.4 nM
- IC50 [2]: 7.7 µM

Structure (SMILES): CC1(Nc2cc(-c3ccncc3)nc3cnccc23)CCC1 [Example 300, N-(1-methylcyclobutyl)-2-(pyridin-4-yl)-1,7-naphthyridin-4-amine]
- IC50 [1]: 1.2 nM
- IC50 [2]: 0.9 µM

Structure (SMILES): CC(C)(C)Nc1nc(-c2ccncc2)nc2cnccc12 [Example 59, N-tert-butyl-2-(pyridin-4-yl)pyrido[3,4-d]pyrimidin-4-amine]
- IC50 [3]: 1 nM
- IC50 [4]: 4 nM
- IC50 [5]: 19 nM
- EC50 [6]: 341 nM
- IC50 [2]: 1.1 µM

Structure (SMILES): CC(C)(CN)CNc1nc(-c2ccncc2)nc2cnccc12 [Example 317, 2,2-dimethyl-N^1-(2-(pyridin-4-yl)pyrido[3,4-d]pyrimidin-4-yl)propane-1,3-diamine]
- IC50 [1]: 0.8 nM
- IC50 [2]: 3.2 µM

Structure (SMILES): OCC1(Nc2nc(-c3ccncc3)nc3cnccc23)CCC1 [Example 101, (1-{[2-(pyridin-4-yl)pyrido[3,4-d]pyrimidin-4-yl]amino}cyclobutyl)methanol]
- IC50 [3]: 5 nM
- IC50 [4]: 30 nM
- IC50 [5]: 5400 nM
- EC50 [6]: > 20000 nM
- IC50 [2]: 3.3 µM

Structure (SMILES): Cn1nccc1-c1nc(NC2(C)CCC2)c2ccncc2n1 [Example 186, 2-(1-methyl-1H-pyrazol-5-yl)-N-(1-methylcyclobutyl)pyrido[3,4-d]pyrimidin-4-amine]
- IC50 [3]: 9 nM
- IC50 [4]: 50 nM
- EC50 [6]: > 20000 nM

Structure (SMILES): FC(F)(F)[C@H]1CN(c2nc(-c3ccncc3)nc3cnccc23)CCN1 [Example 319, (R)-2-(pyridin-4-yl)-4-(3-(trifluoromethyl)piperazin-1-yl)pyrido[3,4-d]pyrimidine]
- IC50 [1]: 58.1 nM
- IC50 [2]: > 10 µM

Structure (SMILES): CC(C)(N)CNc1cc(-c2ccncc2)nc2cnccc12 [Example 295, 2-methyl-N1-(2-(pyridin-4-yl)-1,7-naphthyridin-4-yl)propane-1,2-diamine]
- IC50 [1]: 10 nM
- IC50 [2]: > 10 µM

Structure (SMILES): CC1(Nc2cc(-c3ccncn3)nc3cnccc23)CCC1 [Example 307, N-(1-methylcyclobutyl)-2-(pyrimidin-4-yl)-1,7-naphthyridin-4-amine]
- IC50 [1]: 1.9 nM
- IC50 [2]: 1.3 µM

Structure (SMILES): CC(C)(N)C(C)(C)Nc1nc(-c2ccncc2)nc2cnccc12 [Example 320, 2,3-dimethyl-N^2-(2-(pyridin-4-yl)pyrido[3,4-d]pyrimidin-4-yl)butane-2,3-diamine]
- IC50 [1]: 0.7 nM
- IC50 [2]: 1 µM

Structure (SMILES): CC(C)(CC(N)=O)Nc1nc(-c2ccncc2)nc2cnccc12 [Example 318, 3-methyl-3-((2-(pyridin-4-yl)pyrido[3,4-d]pyrimidin-4-yl)amino)butanamide]
- IC50 [1]: 1.8 nM
- IC50 [2]: 3.1 µM

Structure (SMILES): CC(C)(COCCO)Nc1nc(-c2ccncc2)nc2cnccc12 [Example 11, 2-(2-methyl-2-{[2-(pyridin-4-yl)pyrido[3,4-d]pyrimidin-4-yl]amino}propoxy)ethan-1-ol]
- IC50 [3]: 3 nM
- IC50 [4]: 12 nM
- IC50 [5]: 646 nM
- EC50 [6]: 1430 nM

Structure (SMILES): CC(C)(CN)CNc1cc(-c2ccncc2)nc2cnccc12 [Example 301, 2,2-dimethyl-N1-(2-(pyridin-4-yl)-1,7-naphthyridin-4-yl)propane-1,3-diamine]
- IC50 [1]: 5.2 nM
- IC50 [2]: > 10 µM

Structure (SMILES): CC1CCCCN1c1cc(-c2ccncc2)nc2cnccc12 (centres unmarked) [Example 293, 4-(2-methylpiperidin-1-yl)-2-(pyridin-4-yl)-1,7-naphthyridine]
- IC50 [1]: 16 nM

Structure (SMILES): CN(C)C(=O)C(C)(C)Nc1nc(-c2ccncc2)nc2cnccc12 [Example 314, N,N,2-trimethyl-2-((2-(pyridin-4-yl)pyrido[3,4-d]pyrimidin-4-yl)amino)propanamide]
- IC50 [1]: 467 nM

Structure (SMILES): CC(C)(CNC(=O)OC(C)(C)C)CNc1nc(-c2ccncc2)nc2cnccc12 [Example 316, tert-butyl (2,2-dimethyl-3-((2-(pyridin-4-yl)pyrido[3,4-d]pyrimidin-4-yl)amino)propyl)carbamate]
- IC50 [1]: 42.5 nM

Structure (SMILES): FC(F)(F)[C@H]1CN(c2cc(-c3ccncc3)nc3cnccc23)CCN1 [Example 305, (R)-2-(pyridin-4-yl)-4-(3-(trifluoromethyl)piperazin-1-yl)-1,7-naphthyridine]
- IC50 [1]: 663 nM

Structure (SMILES): CN(c1cc(-c2ccncc2)nc2cnccc12)C(C)(C)C [Example 306, N-(tert-butyl)-N-methyl-2-(pyridin-4-yl)-1,7-naphthyridin-4-amine]
- IC50 [1]: 1.2 nM
- IC50 [2]: 1 µM

Structure (SMILES): CC(C)(C)Nc1nc(-c2nonc2N)nc2cnccc12 [Example 324, 4-(4-(tert-butylamino)pyrido[3,4-d]pyrimidin-2-yl)-1,2,5-oxadiazol-3-amine]
- IC50 [1]: 10.4 nM

Structure (SMILES): CN(C)CC(C)(C)CNc1nc(-c2ccncc2)nc2cnccc12 [Example 323, N^1,N^1,2,2-tetramethyl-N^3-(2-(pyridin-4-yl)pyrido[3,4-d]pyrimidin-4-yl)propane-1,3-diamine]
- IC50 [1]: 4.5 nM

Structure (SMILES): CN(C)CCC(C)(C)Nc1nc(-c2ccncn2)nc2cnccc12 [Example 308, N^1,N^1,3-trimethyl-N^3-(2-(pyrimidin-4-yl)pyrido[3,4-d]pyrimidin-4-yl)butane-1,3-diamine]
- IC50 [1]: 68.7 nM
- IC50 [2]: > 10 µM

Structure (SMILES): FC(F)(F)C1(Nc2cc(-c3ccncc3)nc3cnccc23)CCC1 [Example 294, 2-(pyridin-4-yl)-N-(1-(trifluoromethyl)cyclobutyl)-1,7-naphthyridin-4-amine]
- IC50 [1]: 4.5 nM
- IC50 [2]: 1.1 µM

Structure (SMILES): CC(Nc1nc(-c2ccncc2)nc2cnccc12)C(F)(F)F (centres unmarked) [Example 4, 2-(pyridin-4-yl)-N-(1,1,1-trifluoropropan-2-yl)pyrido[3,4-d]pyrimidin-4-amine]
- IC50 [3]: 1 nM
- IC50 [4]: 1 nM
- IC50 [5]: 1150 nM
- EC50 [6]: 2530 nM
- IC50 [2]: > 10 µM
